What was measured:
[1] = Solubility of compound C in stock solutions; type: physicochemical
[2] = Cell viability of neurons pre-incubated 48 h with test item only (no AβO), MTT assay; type: cell-based; conditions: C57BL6/J, mouse, mouse primary cortical neurons, 1 nM compound C only, 48 h pre-incubation
Procedure: (§1) Mouse primary cortical neurons were pre-incubated for 48 h with vehicle, 0.05 μM DHA (used as positive control) or different concentrations of Compound C. Then, cortical neurons were treated for 24 h with vehicle (FIG. 1 left) or 1 μM AβO (FIG. 2 right) and cell viability was determined using the MTT assay (n=3 determinations per condition, 1 independent experiment), Data are represented as % of vehicle control (Mean*SD).
as §1, with “of Herb B Extracts.” for “of Compound C.”, “(FIG. 10” for “(FIG. 1”, “(FIG. 11” for “(FIG. 2”, “control (Mean±SD).” for “control (Mean*SD).”
Cortical neurons from embryonic day 16-17 are prepared from C57BL6/J mouse fetuses. In brief, dissociated cortical cells were plated (50.000 cells/well) in 48-well plates pre-coated with 1.5 μg/mL polyornithine (Sigma). […] The AβO-induced neurotoxicity was evaluated using the MTT assay.
Cortical neurons from embryonic day 16-17 are prepared from C57BL6/J mouse fetuses. […] The AβO-induced neurotoxicity was evaluated using the MTT assay. […]

CCCCCCCCCCCCCCC(=O)OCC(COC(=O)CCCCCCCCCCCCCC)OC(=O)CCCCCCCCCCCCCC [Compound C, tripentadecanoin]
solubility in stock solutions [1]: not fully soluble
viability at 48 h, 0.001 µM [2]: 117 ± 3.7%

Reference: patent US12594255B2, “Lipids with odd number of carbon atoms and their use as pharmaceutical composition or nutritional supplement” (SunRegen Healthcare AG, priority 2016, dated 2026)
